The results in this text go back to PMC3693456 (Bioorganic & medicinal chemistry letters, 2008).

In this assay the target is CB1 receptor (Rattus norvegicus, UniProt P20272). Type of assay: binding. The following applies: rat brain membranes, PMSF; for CB1 receptor affinity (in words): qualitative statement.
Sequence of CB1 receptor (P20272 whole entry): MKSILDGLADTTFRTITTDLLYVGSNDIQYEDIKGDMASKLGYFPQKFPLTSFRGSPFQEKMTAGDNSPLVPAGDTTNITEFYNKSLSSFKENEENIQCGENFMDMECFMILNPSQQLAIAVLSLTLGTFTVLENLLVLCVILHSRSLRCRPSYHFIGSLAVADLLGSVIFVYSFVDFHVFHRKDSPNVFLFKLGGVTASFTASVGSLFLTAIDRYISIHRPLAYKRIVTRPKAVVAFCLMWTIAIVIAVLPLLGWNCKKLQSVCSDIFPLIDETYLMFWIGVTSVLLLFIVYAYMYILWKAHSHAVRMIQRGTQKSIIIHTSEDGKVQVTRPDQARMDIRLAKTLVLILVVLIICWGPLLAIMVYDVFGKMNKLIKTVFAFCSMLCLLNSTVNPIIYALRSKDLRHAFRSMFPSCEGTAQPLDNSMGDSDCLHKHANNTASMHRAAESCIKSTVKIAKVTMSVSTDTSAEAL

`C[C@H](CO)NC(=O)CCC/C=C\C/C=C\C/C=C\C/C=C\CCCCc1ccc(Br)cc1` [7n]: the “CB1 receptor affinity (in words)” value is “most potent analog”.

For `C[C@H](CO)NC(=O)CCC/C=C\C/C=C\C/C=C\C/C=C\CCCCc1ccco1` [7q], the “CB1 receptor affinity (in words)” value is “substantially weaker affinity”.

Regarding `C[C@H](CO)NC(=O)CCC/C=C\C/C=C\C/C=C\C/C=C\CCCCc1cccc2ccccc12` [7f], the “CB1 receptor affinity (in words)” value is “loss of CB1 receptor affinity”.

In the case of `C[C@H](CO)NC(=O)CCC/C=C\C/C=C\C/C=C\C/C=C\CCCCCc1ccccc1` [7e], the “fold lower CB1 affinity compared to 7d” value (relative to 7d) is on record as “over 5 fold”.
